Results: US20240294551A1 (AMGEN INC., priority 2022, published 2024)

How the values were obtained:
[1] = molecular target: His-tagged KRAS G12D protein (Homo sapiens (Human), UniProt P01116, G12D); experiment: KRAS G12D TR-FRET Assay; assay type: binding; settings: read-out: KRAS G12D Binding IC50
How it was run: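 His-tagged KRAS G12D (diluted to 20 nM in pH 7.4 HEPES buffer with 10 mM MgCl2 and 10 μM GDP) was preincubated with titrated compound for 30 min at room temperature. Biotinylated KRPep-2d peptide (diluted to 20 nM) was then added for 1 h, and displacement was monitored by TR-FRET.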

[2] = molecular target: GDP-bound KRAS protein (aa 1-169), containing both G12D and C118A amino acid substitutions (Homo sapiens (Human), UniProt P01116, C118A/G12D); experiment: KRAS G12D Coupled Nucleotide Exchange Assay; assay type: biochemical; settings: read-out: KRAS G12D Coupled Exchange IC50
GDP-bound KRAS protein (aa 1-169), containing both G12D and C118A amino acid substitutions, sequence (P01116 other isoform, or with tags, fused parts or gaps G12D/C118A): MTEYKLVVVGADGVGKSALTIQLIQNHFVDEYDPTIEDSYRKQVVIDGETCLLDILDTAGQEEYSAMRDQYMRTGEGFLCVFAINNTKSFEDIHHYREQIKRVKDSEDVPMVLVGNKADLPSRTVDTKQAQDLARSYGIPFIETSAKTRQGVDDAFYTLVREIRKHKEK

His-tagged KRAS G12D protein, sequence (P01116 other isoform, or with tags, fused parts or gaps G12D): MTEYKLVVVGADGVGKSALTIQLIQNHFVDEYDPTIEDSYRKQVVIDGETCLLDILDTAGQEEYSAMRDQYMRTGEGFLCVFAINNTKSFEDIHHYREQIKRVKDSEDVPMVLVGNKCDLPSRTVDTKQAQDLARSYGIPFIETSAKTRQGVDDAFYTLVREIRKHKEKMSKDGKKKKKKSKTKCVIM

| Structure (SMILES) | IC50 [1] [nM] | IC50 [2] [nM] |
| --- | --- | --- |
| CN1C(=O)OCCCc2c(Cl)cc3[nH]ncc3c2-c2ncc3c(nc(OC[C@@]45CCCN4C[C@H](F)C5)nc3c2F)N2C[C@H](O)C[C@H]1C2 [Example 287, (17S,19R)-9-chloro-30-fluoro-24-(((2R,7aS)-2-fluorotetrahydro-1H-pyrrolo[1,2-a]pyrrol-7a(5H)-yl)methoxy)-19-hydroxy-16-methyl-14-oxa-5,6,16,21,23,25,29-heptaazahexacyclo[24.3.1.1~17,21~.0~2,10~.0~3,7~.0~22,27~]hentriaconta-1(30),2,4,7,9,22,24,26,28-nonaen-15-one] | 1230 | 376 |
| O=C1OCCCc2c(Cl)cc3[nH]ncc3c2-c2ncc3c(nc(OC[C@@]45CCCN4C[C@H](F)C5)nc3c2F)N2CC[C@@H]3CCN1[C@@H]3C2 [Example 176, (28R,32S)-18-chloro-33-fluoro-4-(((2R,7aS)-2-fluorotetrahydro-1H-pyrrolo[1,2-a]pyrrol-7a(5H)-yl)methoxy)-23-oxa-1,3,5,9,14,15,25-heptaazaheptacyclo[23.5.2.1~6,10~.0~2,7~.0~11,19~.0~12,16~.0~28,32~]tritriaconta-2,4,6,8,10(33),11,13,16,18-nonaen-24-one] | 287 | 179 |
| Cc1cc2[nH]ncc2c2c1CC/C=C\CO[C@@H]1CCCN(C1)c1nc(OC[C@@]34CCCN3C[C@H](F)C4)nc3c(F)c-2ncc13 [Example 133] | 241 | 240 |
| O=C1N[C@H]2CN(C[C@H]3C[C@H]32)c2nc(OC[C@@]34CCCN3C[C@H](F)C4)nc3c(F)c(ncc23)-c2c(c(Cl)cc3[nH]ncc23)CCC[C@H]1F [Example 173, (23R,26R,27R,29S)-18-chloro-23,32-difluoro-4-(((2R,7aS)-2-fluorotetrahydro-1H-pyrrolo[1,2-a]pyrrol-7a(5H)-yl)methoxy)-1,3,5,9,14,15,25-heptaazaheptacyclo[24.4.1.1~6,10~.0~2,7~.0~11,19~.0~12,16~.0~27,29~]dotriaconta-2,4,6,8,10(32),11,13,16,18-nonaen-24-one] | 1570 | 1110 |
| Cc1c2ncc3c(nc(OC[C@]45CC[C@@H](CC4)C(=O)N5)nc13)N1CCC[C@](C)(C1)NC(=O)CCCc1c(F)ccc3cc(O)cc-2c13 [Example 25, (15R)-22-Fluoro-27-hydroxy-15,31-dimethyl-8-(((1s,4s)-3-oxo-2-azabicyclo[2.2.2]octan-1-yl)methoxy)-3,7,9,11,16-pentaazahexacyclo[19.7.1.1˜2,6˜.1˜11,15˜.0˜5,10˜.0˜25,29˜]hentriaconta-1(28),2(31),3,5,7,9,21,23,25(29),26-decaen-17-one] | 10 | 7 |
| Cn1ncc2cc(Cl)c3c(c21)-c1ncc2c(nc(OC[C@@]45CCCN4C[C@H](F)C5)nc2c1F)N1CCOC[C@H](C1)OC(=O)OCCC3 [Example 364, (26S)-18-chloro-32-fluoro-4-(((2R,7aS)-2-fluorotetrahydro-1H-pyrrolo[1,2-a]pyrrol-7a(5H)-yl)methoxy)-13-methyl-23,25,28-trioxa-1,3,5,9,13,14-hexaazahexacyclo[24.4.1.1~6,10~.0~2,7~.0~11,19~.0~12,16~]dotriaconta-2,4,6,8,10(32),11,14,16,18-nonaen-24-one] | 102 | 20 |
| O=C1OCCCc2c(Cl)cc3[nH]ncc3c2-c2ncc3c(nc(O[C@H]4CCOC4)nc3c2F)N2CCOC[C@H](C2)O1 [Example 196, (26S)-18-chloro-32-fluoro-4-((3S)-tetrahydro-3-furanyloxy)-23,25,28-trioxa-1,3,5,9,14,15-hexaazahexacyclo[24.4.1.1~6,10~.0~2,7~.0~11,19~.0~12,16~]dotriaconta-2,4,6,8,10(32),11,13,16,18-nonaen-24-one] | 167 | 214 |
| Cc1cc2[nH]ncc2c2c1CCCCC(=O)OC1CN(CC(F)(F)C1)c1nc(OC[C@@]34CCCN3C[C@H](F)C4)nc3c(F)c-2ncc13 (mixture of isomers) [Example 81] | 279 | 212 |
| C[C@]12CCCCN(C1)c1nc(OC[C@@]34CCCN3C[C@H](F)C4)nc3c(F)c(ncc13)-c1c(c(Cl)cc3[nH]ncc13)CCCCC(=O)N2 [Example 165, (26S)-18-chloro-32-fluoro-4-(((2R,7aS)-2-fluorotetrahydro-1H-pyrrolo[1,2-a]pyrrol-7a(5H)-yl)methoxy)-26-methyl-1,3,5,9,14,15,25-heptaazahexacyclo[24.4.1.1~6,10~.0~2,7~.0~11,19~.0~12,16~]dotriaconta-2,4,6,8,10(32),11,13,16,18-nonaen-24-one] | 12700 | 4430 |
| O=C1OCCCc2c(Cl)cc3[nH]ncc3c2-c2ncc3c(nc(OC[C@@]45CCCN4C[C@H](F)C5)nc3c2F)N2CCOC[C@@](CF)(C2)O1 [Example 310, (26R)-18-chloro-32-fluoro-26-(fluoromethyl)-4-(((2R,7aS)-2-fluorotetrahydro-1H-pyrrolo[1,2-a]pyrrol-7a(5H)-yl)methoxy)-23,25,28-trioxa-1,3,5,9,14,15-hexaazahexacyclo[24.4.1.1~6,10~.0~2,7~.0~11,19~.0~12,16~]dotriaconta-2,4,6(32),7,9,11,13,16,18-nonaen-24-one] | 2260 | 1490 |
| CN1CCC[C@H]1COc1nc2c3cnc(c(F)c3n1)-c1c(c(Cl)cc3[nH]ncc13)CCCOC(=O)O[C@@]1(CF)COCCN2C1 [Example 337, (26R)-18-chloro-32-fluoro-26-(fluoromethyl)-4-(((2S)-1-methyl-2-pyrrolidinyl)methoxy)-23,25,28-trioxa-1,3,5,9,14,15-hexaazahexacyclo[24.4.1.1~6,10~.0~2,7~.0~11,19~.0~12,16~]dotriaconta-2,4,6,8,10(32),11,13,16,18-nonaen-24-one] | 2440 | 790 |
| Fc1c2ncc3c(nc(OC[C@@]45CCCN4C[C@H](F)C5)nc13)N1CCO[C@@H](CCOCCCc3c(Cl)cc4[nH]ncc4c3-2)C1 [Example 224] | 63 | 39 |
| Cc1cc2[nH]ncc2c2c1CCCCO[C@H](C)[C@@H]1CN(CCO1)c1nc(OC[C@@]34CCCN3C[C@H](F)C4)nc3c(F)c-2ncc13 [Example 243, (16R,17S)-30-fluoro-24-(((2R,7aS)-2-fluorotetrahydro-1H-pyrrolo[1,2-a]pyrrol-7a(5H)-yl)methoxy)-9,16-dimethyl-15,18-dioxa-5,6,21,23,25,29-hexaazahexacyclo[24.3.1.1~17,21~.0~2,10~.0~3,7~.0~22,27~]hentriaconta-1(30),2,4,7,9,22,24,26,28-nonaene] | 4480 | 4070 |
| Cc1cc2[nH]ncc2c2c1CCCCO[C@@H](C)[C@@H]1CN(CCO1)c1nc(OC[C@@]34CCCN3C[C@H](F)C4)nc3c(F)c-2ncc13 [Example 244, (16S,17S)-30-fluoro-24-(((2R,7aS)-2-fluorotetrahydro-1H-pyrrolo[1,2-a]pyrrol-7a(5H)-yl)methoxy)-9,16-dimethyl-15,18-dioxa-5,6,21,23,25,29-hexaazahexacyclo[24.3.1.1~17,21~.0~2,10~.0~3,7~.0~22,27~]hentriaconta-1(30),2,4,7,9,22,24,26,28-nonaene] | 27 | 30 |
| Cc1cc2[nH]ncc2c2c1CCCCCO[C@@H]1CCCN(C1)c1nc(OC[C@@]34CCCN3C[C@H](F)C4)nc3c(F)c-2ncc13 [Example 132] | 70 | 67 |
| Cc1cc2[nH]ncc2c2c1CCCCC(=O)N[C@@H]1CN(C[C@@H]3C[C@@H]31)c1nc(OC[C@@]34CCCN3C[C@H](F)C4)nc3c(F)c-2ncc13 [Example 170, (26S,27S,29R)-32-fluoro-4-(((2R,7aS)-2-fluorotetrahydro-1H-pyrrolo[1,2-a]pyrrol-7a(5H)-yl)methoxy)-18-methyl-1,3,5,9,14,15,25-heptaazaheptacyclo[24.4.1.1~6,10~.0~2,7~.0~11,19~.0~12,16~.0~27,29~]dotriaconta-2,4,6,8,10(32),11,13,16,18-nonaen-24-one] | 2490 | 1540 |
| O=C1CCCCc2cccc3cc(O)cc(c23)-c2ncc3c(nc(OC[C@@]45CCCN4C[C@H](F)C5)nc3c2F)N2CCCN1CC2 [Example 9, 32-Fluoro-4-(((2R,7aS)-2-fluorotetrahydro-1H-pyrrolo[1,2-a]pyrrol-7a(5H)-yl)methoxy)-13-hydroxy-1,3,5,9,25-pentaazahexacyclo[23.3.2.1˜6,10˜.1˜11,15˜.0˜2,7˜.0˜19,31˜]dotriaconta-2,4,6(32),7,9,11(31),12,14,16,18-decaen-24-one bis(2,2,2-trifluoroacetate)] | 302 | 292 |
| O=C1N[C@H]2C[C@@H](O)CN(C2)c2nc(OC[C@@]34CCCN3C[C@H](F)C4)nc3c(F)c(ncc23)-c2c(c(Cl)cc3[nH]ncc23)CCCO1 [Example 285, (17S,19R)-9-chloro-30-fluoro-24-(((2R,7aS)-2-fluorotetrahydro-1H-pyrrolo[1,2-a]pyrrol-7a(5H)-yl)methoxy)-19-hydroxy-14-oxa-5,6,16,21,23,25,29-heptaazahexacyclo[24.3.1.1~17,21~.0~2,10~.0~3,7~.0~22,27~]hentriaconta-1(30),2,4,7,9,22,24,26,28-nonaen-15-one] | 1910 | 610 |
| C[C@@]12CCCN(C1)c1nc(OC[C@@]34CCCN3C[C@H](F)C4)nc3c(F)c(ncc13)-c1cccc3cccc(c13)CCCOC(=O)O2 [Example 121] | 508 | 422 |
| Fc1ccc2cccc3c2c1CCOCC[C@@H]1CCCN(C1)c1nc(OC[C@@]24CCCN2C[C@H](F)C4)nc2c(F)c-3ncc12 [Example 223] | 642 | 343 |
